The values below come from patent US4525458A, “Method for the production of sphingomyelinase” (priority 1981, dated 1985).

One series concerns sphingomyelinase. Briefly: Effect of metal ions on enzymatic activity. In kind it is biochemical, Streptomyces sp. A 9107. The conditions noted are these: additive 1 mM; no addition = 100. The protocol:
(§1) After preincubating 0.45 ml of the following reaction mixture at 37° C., 50 μl of an enzyme solution is added to start the reaction. After just 10 minutes, 0.1 ml of 0.1M EDTA is added to stop the reaction.
(§2) The formed phosphorylcholine is led to a color development system through a H2 O2 by using the following reaction mixture, and absorbance at 500 nm is measured.
(§3) The indication of enzymatic activity is calculated from the following equation with activity to produce 1 μmole of phosphorylcholine for 1 minute as one unit:
(§4) wherein ΔA500 nm means a difference in absorbance at 500 nm between at the start of reaction and 10 minutes after the reaction.
Consider `[Cl][Ni][Cl]` [NiCl2], for which the “Relative activity (%)” value was 12%.

`[Cl-].[Cl-].[Co+2]` [CoCl2]: the “Relative activity (%)” value stood at 35%.

As to `[Cl][Cu][Cl]` [CuCl2], the “Relative activity (%)” value worked out at 19%.

Consider `[Ca+2].[Cl-].[Cl-]` [CaCl2], for which the “Relative activity (%)” value worked out at 48%.

Consider `[Cl-].[Cl-].[Zn+2]` [ZnCl2], for which the “Relative activity (%)” value amounted to 3%.

Take `[Ba+2].[Cl-].[Cl-]` [BaCl2]: the “Relative activity (%)” value is recorded as 89%.

For the compound `[Cl-].[Cl-].[Mg+2]` [MgCl2], the “Relative activity (%)” value is 232%.

As for `[Cl][Mn][Cl]` [MnCl2], the “Relative activity (%)” value came to 236%.

Still in this series, the particulars now being: additive 100 mM; no addition = 100.
In the case of `[Cl-].[K+]` [KCl], the “Relative activity (%)” value is listed as 90%.

Regarding `[Cl-].[Na+]` [NaCl], the “Relative activity (%)” value is listed as 73%.

For `Cl.N` [NH4 Cl], the “Relative activity (%)” value turned out to be 79%.

For the next series, the system named is sphingomyelinase. Briefly: Effect of surfactant on enzymatic activity. Type of series: biochemical, Streptomyces sp. A 9107. The conditions noted are these: additive 0.1%; no addition = 100. On the procedure:
as §1, §2, §3, §4
With `CCCCCCCCCCCCOS(=O)(=O)[O-].[Na+]` [Sodium laurylsulfate], the “Relative activity (%)” value came to 13%.

Sodium laurylbenzenesulfonate: the “Relative activity (%)” value was 8%.

Turning to `C[C@H](CCC(=O)O)[C@H]1CC[C@H]2[C@@H]3CC[C@@H]4C[C@H](O)CC[C@]4(C)[C@H]3C[C@H](O)[C@]12C` [Sodium deoxycholate], the “Relative activity (%)” value was found to be 16%.

For Triton X-100, the “Relative activity (%)” value came out at 358%.

For another series, the system named is sphingomyelinase. The series can be described thus: Substrate specificity. Type of series: biochemical, Streptomyces sp. A 9107. As to conditions: as substrate; sphingomyelin = 100. The protocol: as §1, §2, §3, §4
(10) SUBSTRATE SPECIFICITY
For Lecithin, the “Relative activity (%)” value amounted to 0%.

For the compound Sphingomyelin, the “Relative activity (%)” value amounted to 100%.

As to Phosphatidyl serine, the “Relative activity (%)” value is given as 0%.

For Lysolecithin, the “Relative activity (%)” value is reported as 0%.

Take Phosphatidyl ethanolamine: the “Relative activity (%)” value stood at 0%.

For Phosphatidyl inositol, the “Relative activity (%)” value came out at 0%.

Tested on in another series: not listed separately
Briefly: Thermal stability (residual activity). Type of series: physicochemical. As to conditions: 23 u/ml in 100 mM Tris-HCl buffer (pH 7.0), heated for 10 minutes. The protocol:
An enzyme solution is prepared so that its concentration in 100 mM Tris-HCl buffer (pH 7.0) is 23 u/ml, and measured for the residual activity after heated for 10 minutes at every temperatures shown on the abscissa in FIG. 3. The liquor is kept stable until the treatment at 40° C. for 10 minutes.
In the case of sphingomyelinase [enzyme], the “Temperature until which kept stable” value was no more than 40 °C.

Tested on in another series: not listed separately
Briefly: Isoelectric point by electrophoretic method using ampholite. Type of series: physicochemical.
Settings: not given
The protocol: It is determined by the electrophoretic method using ampholite, a carrier. The pH obtained is 8.6.
sphingomyelinase [enzyme]: the Isoelectric point came out at 8.6 pH.

Tested on in another series: not listed separately
The series can be described thus: Measurement of enzymatic activity (specific activity of preparations). In kind it is biochemical. As to conditions: 1 unit = 1 μmole phosphorylcholine per minute. The protocol: as §1, §2, §3, §4
Regarding sphingomyelinase [enzyme], the Specific activity was 1,050 U/mg.
